Four compounds from paper PMC3681751, “Identification of a Novel Antimicrobial Peptide from Human Hepatitis B Virus Core Protein Arginine-Rich Domain (ARD)” (PLoS Pathogens, 2013) can be followed below.

In brackets after ≈: the same amount, converted by molar mass. Read-outs that look alike come from different tables or passages of the source. Positions of bridges follow the written chain, without caps; N, C: chain ends. Non-standard residues stand in square brackets, D forms with d. Residues, ends and D or L forms follow the SMILES beside them. No end group written: not given here. *: point of attachment. X1 = CC[C@H](C)CCCCC(=O)*; Dab = NCC[C@H](N)C(=O)O

The subject of data set [1] is K. pneumonia (ATCC 13884). Format: cell-based, Klebsiella pneumoniae.
In a further data set the test system is P. aeruginosa. Nature of the data set: SYTOX Green uptake (membrane permeabilization). Format: cell-based, Pseudomonas aeruginosa. The settings on record: 0.5, 1 and 2 µM, dose-dependent; triplicates. As for the experimental part:
Briefly, bacteria (10^7 CFU) were prepared and mixed with 1 µM SYTOX Green (Invitrogen) for 15 minutes in the dark. […] Melittin (Sigma), the major toxin of bee venom, was used as a positive control to provide maximal permeabilization.

Data set [2] concerns P. aeruginosa (ATCC 9027). It is filed as cell-based, Pseudomonas aeruginosa. The essentials: (§1)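 Mid-log bacteria at 10^6 CFU/ml in 10 mM sodium phosphate, 50 mM NaCl, pH 7.2, exposed to serially diluted HBc ARD peptides for 3 h at 37 °C without shaking. Mixtures plated on Mueller-Hinton agar overnight to give minimal bactericidal concentration; triplicate tests.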
Data set [3] relates to P. aeruginosa (ATCC 27853). Format: cell-based, Pseudomonas aeruginosa. The essentials:
as §1

The next data set deals with E. coli (ATCC 25922). Format: cell-based, Escherichia coli. As to conditions: 3 h at 37°C in phosphate buffer pH 7.2; triplicate. The essentials: as §1
For data set [4], the system named is A. baumannii ATCC17978 CR. It is filed as cell-based, Acinetobacter baumannii. The settings on record: Induced Colistin resistant strain; colistin susceptibility by broth-dilution (CLSI). From the text:
(§2) Clinical isolates of Pseudomonas aeruginosa (NHRI-01, NHRI-02 and NHRI-04) were obtained through the program of Taiwan Surveillance of Antimicrobial Resistance (TSAR), National Health Research Institutes (NHRI), Taiwan. Acinetobacter baumannii (ATCC 17989, ATCC 17978 CR, ATCC19606, ATCC 19606 CR, TCGH 45530 and TCGH 46709) were obtained from Tzu-Chi Buddhist General Hospital (TCGH) in Taiwan, and clinical isolates (TCGH 45530 and TCGH 46709) were identified using the Vitek system (Biomerieux Vitek, Inc., Hazelwood, MO, USA). A. baumannii is defined as multidrug-resistant, when the organism is resistant to piperacillin, piperacillin-tazobactam, ampicillin/sulbactam, imipenem, ceftazidime, gentamicin, amikacin, tetracycline, chloramphenicol, ciprofloxacin, and cotrimoxazole. Susceptibility to colistin was determined using the broth-dilution method, in accordance with the guidelines of the Clinical and Laboratory Standards Institute (CLSI).
(§3) All peptides were purchased from Yao-Hong Biotechnology Inc. (Taipei, Taiwan). Vendors provided data of peptide characterizations, including HPLC and Mass (data not shown). Antimicrobial activity was determined as described with some modifications as detailed below. Bacteria were grown overnight in Mueller–Hinton broth (Difco) at 37°C, and during the mid-logarithmic phase, bacteria were diluted to 10^6 CFU (colony formation unit)/ml in phosphate buffer (10 mM sodium phosphate and 50 mM sodium chloride, pH 7.2). Peptides were serially diluted in the same buffer. Fifty microliter (µl) of bacteria was mixed with fifty µl of peptides at varying concentrations followed by incubation at 37°C for 3 hours without shaking. At the end of incubation, bacteria were placed on Mueller-Hinton broth agar plates, and allowed growth at 37°C overnight for measurement of minimal bactericidal concentration (MBC). […] All peptides were tested in triplicate.

In the next data set the test system is A. baumannii TCGH46709. Format: cell-based, Acinetobacter baumannii. As to conditions: Clinical isolate, multidrug resistance; colistin susceptibility by broth-dilution (CLSI).
Text: as §2, §3

In a further data set the test system is A. baumannii ATCC19606. Format: cell-based, Acinetobacter baumannii. The settings on record: Reference strain; colistin susceptibility by broth-dilution (CLSI).
Text: as §2, §3

The test system of a further data set is A. baumannii TCGH45530. Format: cell-based, Acinetobacter baumannii. The settings on record: Clinical isolate, multidrug resistance; colistin susceptibility by broth-dilution (CLSI).
Text: as §2, §3

Data set [5] has as its system A. baumannii ATCC19606 CR. Format: cell-based, Acinetobacter baumannii. The settings on record: Induced Colistin resistant strain; colistin susceptibility by broth-dilution (CLSI).
Text: as §2, §3

Another data set relates to A. baumannii ATCC17978. It is filed as cell-based, Acinetobacter baumannii. The settings on record: Reference strain; colistin susceptibility by broth-dilution (CLSI).
Text: as §2, §3

A further data set deals with P. aeruginosa NHRI-04. It is filed as cell-based, Pseudomonas aeruginosa. The settings on record: Colistin sensitive strain; colistin susceptibility by broth-dilution (CLSI).
Text: as §2, §3

A further data set relates to P. aeruginosa NHRI-01. It is filed as cell-based, Pseudomonas aeruginosa. The settings on record: Colistin resistant strain; colistin susceptibility by broth-dilution (CLSI).
Text: as §2, §3

For another data set, the system named is P. aeruginosa NHRI-02. It is filed as cell-based, Pseudomonas aeruginosa. The settings on record: Colistin sensitive strain; colistin susceptibility by broth-dilution (CLSI).
Text: as §2, §3

The subject of a further data set is HepG2 cells. In words: Peptide uptake into mammalian cells. Format: cell-based, human. The settings on record: peptide added to the medium of HepG2 cells. As for the experimental part:
To set up CFSE cell proliferation assay, 293 cells (human kidney origin) and Vero cells (monkey kidney origin) were resuspended in PBS to a final concentration of 10^6 cells/ml, before incubation with 10 µM CFSE dye (CellTrace CFSE cell proliferation kit, Invitrogen) at 37°C for 10 min. To quench the staining, ice-old culture media were then added and incubated on ice for 5 min. Labeled cells were then pelleted and washed three times by fresh medium containing 10% FBS before seeding into six well plates at a density of 3.3×10^5cells/well. After 20 h, the medium was removed and incubated with fresh medium containing 5, 25 and 100 µM HBc 147-183 for one hour (FITC-labeled ARD peptide had been largely internalized in 10 minutes after the addition of ARD peptides to the medium of HepG2 cells). Forty-eight hours later, cells were harvested and analyzed by flow cytometry (FACSCanto, BD Bioscience).

Setting [6] is: ampicillin-resistant strain, 3 h at 37°C in phosphate buffer pH 7.2, triplicate.

As to `C[C@@H](O)[C@H](NC(=O)[C@H](CCCNC(=N)N)NC(=O)[C@H](CCCNC(=N)N)NC(=O)[C@H](CCCNC(=N)N)NC(=O)[C@@H]1CCCN1C(=O)[C@H](CO)NC(=O)[C@H](CCCNC(=N)N)NC(=O)CN)C(=O)N1CCC[C@H]1C(=O)N[C@@H](CO)C(=O)N1CCC[C@H]1C(=O)N[C@@H](CCCNC(=N)N)C(=O)N[C@@H](CCCNC(=N)N)C(=O)N[C@@H](CCCNC(=N)N)C(=O)N[C@@H](CCCNC(=N)N)C(=O)N[C@@H](CO)C(=O)N[C@@H](CCC(N)=O)C(=O)N[C@@H](CO)C(=O)N1CCC[C@H]1C(=O)N[C@@H](CCCNC(=N)N)C(=O)N[C@@H](CCCNC(=N)N)C(=O)N[C@@H](CCCNC(=N)N)C(=O)N[C@@H](CCCNC(=N)N)C(=O)N[C@@H](CO)C(=O)O` [HBc153-176] (H-GRSPRRRTPSPRRRRSQSPRRRRS-OH; N-terminus and C-terminus assumed), the “Antimicrobial activity, MBC” value in data set [1] (3 h at 37°C in phosphate buffer pH 7.2, triplicate) is more than 96 µg/mL; in data set [1] (ATCC 13884, 3 h, pH 7.2) it was more than 32 µM; in data set [2] (ATCC 9027, 3 h, pH 7.2), 1 to 2 µM; in [2] (setting [6]) it was 3 to 6 µg/mL; in data set [3] (ATCC 27853, 3 h, pH 7.2) it was 1 to 2 µM; in data set [3] (setting [6]), 3 to 6 µg/mL. Also, the “Antimicrobial activity, MBC” value in the data set with E. coli (ATCC 25922) turned out to be 48 µg/mL. The “Time to membrane permeabilization (SYTOX Green uptake)” value with P. aeruginosa was not above 10 min. The “MBC against P. aeruginosa” value in data set [2] (summary over the P. aeruginosa strains of Table 1 (ATCC 9027, ATCC 27853)) was “strong activity”.

With `CC[C@H](C)CCCCC(=O)N[C@@H](CCN)C(=O)N[C@H](C(=O)N[C@@H](CCN)C(=O)N[C@H]1CCNC(=O)[C@H]([C@@H](C)O)NC(=O)[C@H](CCN)NC(=O)[C@H](CCN)NC(=O)[C@H](CC(C)C)NC(=O)[C@@H](Cc2ccccc2)NC(=O)[C@H](CCN)NC1=O)[C@@H](C)O` [Polymyxin B] (X1-[Dab]T[Dab][Dab][Dab][dF]L[Dab][Dab]T; lactam 4-C (inferred); N-terminus assumed), the MBC is 8 µg/mL (≈ 6.65 µM) in data set [4]; more than 8 µg/mL against A. baumannii TCGH46709; 2 µg/mL (≈ 1.66 µM) with A. baumannii ATCC19606; 8 µg/mL (≈ 6.65 µM) in the data set on A. baumannii TCGH45530; more than 8 µg/mL in data set [5]; 4 µg/mL (≈ 3.32 µM) with A. baumannii ATCC17978. Moreover, the MBC in the data set on P. aeruginosa NHRI-04 worked out at 2 µg/mL (≈ 1.66 µM); in the data set on P. aeruginosa NHRI-01, 4 µg/mL (≈ 3.32 µM); against P. aeruginosa NHRI-02, 2 µg/mL (≈ 1.66 µM).

With “FITC-labeled HBc147-183: FITC-labeled HBc147-183 used for localization by confocal microscopy (TVVRRRGRSPRRRTPSPRRRRSQSPRRRRSQSRESQC; also: FITC label, place not given here; UniProt P03147 147-183, looked up, fragment)”, in the data set with HepG2 cells, the “Time after which peptide was largely internalized” value was 10 min.

Regarding `CC[C@H](C)CCCCC(=O)N[C@@H](CCN)C(=O)N[C@H](C(=O)N[C@@H](CCN)C(=O)N[C@H]1CCNC(=O)[C@H]([C@@H](C)O)NC(=O)[C@H](CCN)NC(=O)[C@H](CCN)NC(=O)[C@H](CC(C)C)NC(=O)[C@@H](CC(C)C)NC(=O)[C@H](CCN)NC1=O)[C@@H](C)O` [Colistin] (X1-[Dab]T[Dab][Dab][Dab][dL]L[Dab][Dab]T; lactam 4-C (inferred); N-terminus assumed), the MBC in data set [4] was more than 8 µg/mL; with A. baumannii TCGH46709 it was more than 8 µg/mL; in the data set on A. baumannii ATCC19606 it was 2 µg/mL (≈ 1.71 µM); against A. baumannii TCGH45530, more than 8 µg/mL; in data set [5], 8 µg/mL (≈ 6.84 µM); with A. baumannii ATCC17978, 4 µg/mL (≈ 3.42 µM). Further, the MBC with P. aeruginosa NHRI-04 was 4 µg/mL (≈ 3.42 µM); in the data set on P. aeruginosa NHRI-01, more than 8 µg/mL; with P. aeruginosa NHRI-02, 4 µg/mL (≈ 3.42 µM).
